US11560420B2, “Method for producing antibodies using ovine B-cells and uses thereof” (Roche Diagnostics Operations, Inc., priority 2013, dated 2023)

Legend:
[1] = tested on: sIgG+CD45R+ B-cells; experiment: IgG secretion by in vitro cultivated pools of sIgG+CD45R+ B-cells (sheep IgG ELISA of supernatants); type: cell-based; details: for number of IgG-containing wells compared with basal medium: basal medium supplemented with the factor
Excerpt: (§1) To exemplify the current invention PBMCs were isolated from sheep immunized with a KLH-conjugated hapten and underwent positive panning using the biotinylated hapten and magnetic streptavidin beads to enrich antigen-specific B-cells. Subsequently, B-cells were stained for both surface IgG (sIgG) and the B-cell marker CD45R or CD21. Pools of 50 cells (sIgG^+CD45R^+ or sIgG^+CD21^+) were sorted into 96-well plates using a BD FACS Aria cell sorter. Cells were cultivated in medium supplemented with different factors in order to identify a medium composition that promotes the proliferation of the B-cells as well as the differentiation to IgG secreting cells (i.e. plasma cells)
(§2) In all experiment the basal medium was supplemented with 10% FCS, SAC and sheep TSN. Cells were cultivated in the presence of EL4B5 feeder cells.
(§3) Pools of 50 cells/well of antigen-enriched sIgG^+CD45R^+ B-cells were cultivated in the different media in a 96-well plate in the presence of EL4B5 feeder cells. After one week of cultivation the sheep IgG concentration of the supernatants was analyzed using a sheep IgG ELISA. The results for IMDM as basal medium are presented in FIG. 1 and for DMEM and IMDM as basal medium in the following Table.
(§4) For a more detailed analysis 4 categories of wells were defined: Wells with no IgG producing cells (IgG concentration below limit of detection, i.e. <10 ng/ml), wells with low IgG concentrations (10-50 ng/ml), wells with an average IgG concentration (50-200 ng/ml) and wells with a high IgG concentration (200-400 ng/ml).
(§5) Suffolk-Merino sheep were immunized several times using a KLH-coupled hapten as immunogen (500 μg dose formulated in an adjuvant). Five days before isolation of B-cells sheep were boosted by a subcutaneous application of the immunogen (500 μg dose per animal formulated in an adjuvant). For isolation of B-cells approx. 150 ml EDTA-blood was taken from the animals and mixed with an equal volume of PBS. The diluted blood was loaded on Leucosep™ tubes (Greiner Bio-One, Frickenhausen, Germany) (20 ml per tube) and centrifuged for 15 min. at 800×g at room temperature. After centrifugation the PBMCs (peripheral blood mononuclear cells) were collected, washed with PBS and counted using a counting chamber.
Following washing with PBS the PBMCs were resuspended in FACS Buffer (PBS/1% BSA) at 5×10^7 cells/ml. For positive panning of antigen-specific B-cells, the cells were labeled by incubation with the biotinylated hapten (500 ng/ml) for 30 min. at 4° C. under gentle rotation. Subsequently cells were washed with PBS and resuspended in Labeling Buffer (PBS/2 mM EDTA) at 1×10^7 cells per 90 μl. Cells were incubated with magnetic streptavidin microbeads (Miltenyi Biotec, Bergisch-Gladbach, Germany) for 30 min. at 4° C. under gentle rotation (using 10 μl of the beads per 90 μl of cell suspension). After washing with PBS cells were resuspended in MACS Buffer (PBS/1% BSA/2 mM EDTA) at 2×10^8 cells/ml and loaded on MACS column (Miltenyi Biotec) equilibrated with MACS buffer. Following washing with MACS buffer the magnet was removed from the column and labeled, antigen-specific cells were eluted in MACS buffer.
For staining of B-cells the eluted cell fraction was washed with PBS and resuspended in FACS Buffer at 2×10^7 cells/ml. […]

[2] = tested on: sIgG+CD21+ B-cells; experiment: IgG secretion by in vitro cultivated pools of sIgG+CD21+ B-cells (sheep IgG ELISA of supernatants); type: cell-based
Excerpt: as §1, §2
as §3, with “sIgG^+CD21^+” for “sIgG^+CD45R^+”, “indicated medium” for “different media”, “2” for “1”
as §4, §5
Following washing with PBS the PBMCs were resuspended in FACS Buffer (PBS/1% BSA) at 5×10^7 cells/ml. For positive panning of antigen-specific B-cells, the cells were labeled by incubation with the biotinylated hapten (500 ng/ml) for 30 min. at 4° C. under gentle rotation. Subsequently cells were washed with PBS and resuspended in Labeling Buffer (PBS/2 mM EDTA) at 1×10^7 cells per 90 μl. […]

[3] = tested on: single sIgG+CD21+ B-cells; experiment: Sorting and cultivation of single sIgG+CD21+ B-cells, IgG concentration of supernatant by ELISA; type: cell-based, sheep; details: for % IgG positive wells: % of total wells
Excerpt: PBMCs were isolated from sheep immunized with a KLH-conjugated hapten, underwent positive panning for enrichment of antigen-specific B-cells and were stained for both sheep sIgG and CD21. Single cells were sorted in 96-well plates using a BD FACS Aria cell sorter. Cells were cultivated in IMDM supplemented with 10% FCS, SAC, sheep TSN and PMA. Cells were cultivated in the presence of EL4B5 feeder cells. After one week of cultivation, the IgG concentration of the supernatant of the cells was analyzed by ELISA.
This experiment was performed again. PBMCs were isolated from sheep immunized with another KLH-conjugated hapten, underwent positive panning for enrichment of antigen-specific B-cells and were stained for both sheep sIgG and CD21. Double-positive single cells were sorted in 96-well plates using a BD FACS Aria cell sorter. Cells were cultivated in IMDM supplemented with 10% FCS, SAC, sheep TSN and PMA in the presence of EL4B5 feeder cells.
In control experiments single cells were cultivated using the same cultivation conditions in the absence of PMA. After one week of cultivation, the IgG concentration of the cell supernatants was analyzed by ELISA. After one week of cultivation in the presence of PMA a total of approx. 16% of total wells contained IgG-secreting B-cell clones. In turn, 35% of the wells with IgG-secreting clones contained a low IgG concentration, 35% contained an average IgG concentration and 30% contained a high IgG concentration. In the absence of PMA none of the wells contained IgG-secreting B-cell clones.
Sheep PBMCs from immunized animals were isolated as described above. Antigen-specific B-cells were enriched by positive panning using the biotinylated antigen and magnetic streptavidin microbeads (Miltenyi Biotec) as described above. Cells were stained using a 1:50 diluted FITC-labeled anti-sheep IgG monoclonal antibody (Clone GT-34) (Sigma-Aldrich) in combination with a 1:10 diluted RPE-labeled anti-sheep CD21 mAb (AbD Serotec). Cells were incubated with the mAbs for 45 min. at 4° C. under gentle rotation. In control experiments aliquots of the cells were stained with the individual mAbs alone (single staining). Unstained cells served as negative control.
After washing with PBS cells were resuspended in FACS buffer and subjected to cell sorting using a FACS Aria I cell sorter (BD Biosciences). Single sIgG^+CD21^+ double positive B-cells were identified and sorted into a 96-well plate (one cell/well) containing 280 μl medium and γ-irradiated murine EL4B5 feeder cells (approx. 5×10^4 feeder cells/well seeded 24 hours before cell sorting into the plates).
The medium for cultivation of single ovine B-cells was IMDM (Gibco) was supplemented with 10% FCS (Hyclone), L-Penicillin-Streptomycin-Glutamine (1×) (Gibco), 55 μM 2-Mercaptoethanol (Gibco), 0.025% Pluronic F-68 (Gibco), sheep TSN (1:20 dilution), SAC (1:10,000 dilution) (Calbiochem) and 1 μg/ml PMA (Sigma-Aldrich).
B-cells were incubated for 7 to 10 days in the medium at 37° C./5% CO2 in a humidified atmosphere. Subsequently the supernatant of the cells was harvested and the IgG concentration was determined by ELISA as described below
A biotin-conjugated monoclonal anti-sheep IgG antibody (cat. #213-062-177, Dianova, Hamburg, Germany) was immobilized on a streptavidin coated 96-well plate (MicroCoat, Bernried, Germany). The mAb (100 μl/well) was used at a concentration of 300 ng/ml in PBS/1% RPLA4 (bovine plasma albumin) (Roche Diagnostics GmbH, Mannheim, Germany) and wells were incubated for 1 hour at room temperature (RT) with the diluted mAb. After washing with Wash Buffer (0.9% NaCl/0.05% Tween) the supernatants of the in vitro cultivated B-cells or serial dilutions of purified polyclonal sheep IgG (Roche) were added to the plates and incubated for 1 h at RT. After washing with Wash Buffer wells were incubated with a donkey anti-sheep IgG (H+L) antibody (1:15,000 dilution in PBS/1% RPLA4) labeled with horseradish peroxidase (Dianova, cat. #713-035-147). […]

[4] = tested on: single sIgG+CD21+ B-cells; experiment: Antigen-specificity of IgG secreted by single-cell B-cell clones (antigen-specific ELISA); type: cell-based, sheep; details: for % wells with antigen-specific IgG: % of IgG-secreting clones
Method: The specificity of the secreted antibodies was analyzed using an antigen-specific ELISA (data not shown).
Additionally, the specificity of the secreted antibodies was analyzed using an antigen-specific ELISA (data not shown).
Biotin-conjugated antigens were immobilized on a streptavidin coated 96-well plate (MicroCoat, Bernried, Germany). The biotinylated antigens (100 μl/well) were used at a concentration of 100-300 ng/ml in PBS/1% RPLA4 (bovine plasma albumin) (Roche Diagnostics GmbH, Mannheim, Germany) and wells were incubated with the diluted antigens for 1 hour at room temperature (RT). After washing with Wash Buffer (0.9% NaCl/0.05% Tween) the supernatants of the in vitro cultivated B-cells or serial dilutions of purified polyclonal sheep IgG (Roche) were added to the plates and incubated for 1 hour at RT. After washing with Wash Buffer wells were incubated with a donkey anti-sheep IgG (H+L) antibody (1:15,000 dilution in PBS/1% RPLA4) labeled with horseradish peroxidase (Dianova, cat. #713-035-147). After incubation for 1 hour at RT the plates were washed with Wash Buffer and signals were detected using ABTS solution (Roche Diagnostics GmbH, Mannheim, Germany) as substrate.

[5] = first experiment, % of wells with IgG-secreting clones
[6] = second experiment, listed as with PMA
[7] = second experiment, % of wells with IgG-secreting clones
[8] = second experiment, % of wells with IgG-secreting clones, listed as with PMA

## CCCCCCCCCCCCCC(=O)O[C@@H]1[C@@H](C)[C@@]2(O)[C@@H](C=C(CO)C[C@]3(O)C(=O)C(C)=C[C@@H]23)[C@@H]2C(C)(C)[C@]12OC(C)=O [PMA, Phorbol 12-Myristate-13-Acetate]
[1]; DMEM basal medium (10% FCS, SAC, sheep TSN)
  wells containing significant concentrations of IgG (>50 ng/ml): 64%
[1]; IMDM as basal medium
  wells with an average IgG concentration (50-200 ng/ml): 100%
[1]; IMDM basal medium (10% FCS, SAC, sheep TSN)
  wells containing significant concentrations of IgG (>50 ng/ml): 100%
[2]; IMDM as basal medium
  wells with a high IgG concentration (200-400 ng/ml): approx. 50%
  wells with an average IgG concentration (50-200 ng/ml): approx. 40%
[2]; addition to the basal medium
  wells containing significant levels of IgG (>50 ng/ml): approx. 90%
[3]; [5]
  wells with IgG-secreting clones containing a high IgG concentration (200-400 ng/ml): 14%
  wells with IgG-secreting clones containing a low IgG concentration (10-50 ng/ml): 62%
  wells with IgG-secreting clones containing an average IgG concentration (50-200 ng/ml): 24%
[3]; first experiment, single cells, IMDM with 10% FCS, SAC, sheep TSN and PMA, EL4B5 feeder cells, one week
  total wells containing IgG-secreting B-cell clones: 33%
[3]; second experiment
  wells with high IgG conc. (number): 20
  wells with low IgG conc. (number): 23
  wells with medium IgG conc. (number): 23
  % IgG positive wells: approx. 16%
[3]; second experiment (another KLH-conjugated hapten), single cells, one week
  No. IgG positive wells: 66
[3]; [6]
  % IgG positive wells: 15.7%
[3]; [7]
  wells with high IgG conc. (%): 30%
  wells with low IgG conc. (%): 35%
  wells with medium IgG conc. (%): 35%
[3]; [8]
  wells with high IgG conc. (%): 30.3%
  wells with low IgG conc. (%): 34.8%
  wells with medium IgG conc. (%): 34.8%
[4]; first experiment, % of total IgG-secreting clones
  IgG-secreting clones producing antigen-specific antibodies: 38%
[4]; second experiment
  No. wells with antigen-specific IgG: 19
  % wells with antigen-specific IgG: 29%
[4]; [6]
  % wells with antigen-specific IgG: 28.8%

## IL-6: human IL-6 (Roche Diagnostics GmbH), 50 ng/ml added to the basal medium
[1]
  number of IgG-containing wells compared with basal medium: increase

B1: IL-4: human IL-4 (Peprotech), 10 ng/ml added to the basal medium (protein, UniProt P05112 25-153, looked up)
Interleukin-4: HKCDITLQEIIKTLNSLTEQKTLCTELTVTDIFAASKNTTEKETFCRAATVLRQFYSHHEKDTRCLGATAQQFHRHKQLIRFLKRLDRNLWGLAGLNSCPVKEANQSTLENFLERLKTIMREKYSKCSS
[1]
  number of IgG-containing wells compared with basal medium: increase
[2]; basal medium supplemented with the factor
  number of IgG-containing wells compared with basal medium: increase
